pIC50: −log10 of the molar value. Like-named read-outs stand apart in the source and are kept apart here.
Key:
[1] = target: GST-Syk Full Protein (human) (Homo sapiens, UniProt P43405); assay: Syk kinase inhibition test (HTRF method); format: biochemical
In short: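 Human GST-Syk full-length (6.4 nM) phosphorylated biotin-EDPDYEWPSA-NH2 (250 nM) with 100 μM ATP in HEPES pH 7.0/MgCl2 buffer, 2% DMSO, 30 min at room temperature. EDTA stop, then HTRF detection (streptavidin-XL665, Eu anti-phosphotyrosine) after 1 h; 665/620 ratio read.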

[2] = test system: cultured human mast cells; assay: Degranulation inhibition test using cultured human mast cells (IgE cross-linking, β-Hexosaminidase release); format: cell-based; details: Mast cell, cultured human mast cells, read-out: human degranulation ave. IC50
Method: Degranulation Inhibition Test Using Cultured Human Mast Cells
(1) Separation of Hematopoietic Stem Cells;
After 10 to 60 mL of umbilical cord blood collected with heparin was diluted with an equivalent amount of buffer (0.5% BSA, 2 mM EDTA/PBS-), it was superposed on Ficoll-Paque (Amersham Pharmacia Biotech) (Ficoll/Blood (1:2)) and mononuclear leukocyte fraction was collected by centrifuging it at 400 G (1350 rpm) 4° C. for 30 minutes. After centrifugal washing (1500 rpm, 5 min, 4° C.×3) with buffer, the number of cells was counted and 0.1 mL of CD34 Progenitor Cell Isolation Kit (Miltenyi Biotec), Reagent A1 (Fc blocking) was added for 1×10^8 cells. After agitation, 0.1 mL of Reagent A2 (CD34 antibody-hapten) was added (final volume 0.5 mL/1×10^8 cells) and incubated at 9° C. for further 15 minutes after agitation. After centrifugal washing (1500 rpm, 5 min, 4° C.×3), it was resuspeded in a buffer (0.4 mL) and 0.1 mL of Reagent B (anti hapten antibody-microbeads) was added and agitated (final volume 0.5 mL/1×10^8 cells) and incubated at 9° C. for further 15 minutes. After centrifugal washing (1500 rpm, 5 min, 4° C.×2), it was resuspeded in a buffer (0.5 mL) and loaded on CS column (Miltenyi Biotec) set in MACS (MAgnetic Cell Sorting system; Miltenyi Biotec, Daiichi Pure Chemicals) and washed with 30 mL of buffer to remove CD34^− cells. The column was separated from MACS and eluted with 30 mL of buffer and CD34^+ cells bound to the column were collected and used as a hematopoietic stem cell population.
(2) Acquisition of Human Mast Cells by Long-Term Culturing of Hematopoietic Stem Cells;
The CD34^+ cells separated in (1) were resuspended in Iscove's Modified Dulbecco's Medium (IMDM, Gibco) containing human (rh)SCF (1 μg/mL, Peprotech), rhIL-6 (0.5 μg/mL, Peprotech), rhIL-3 (10 ng/mL, Peprotech), 1% Insulin-Transferrin (Gibco), 5×10^−5M 2-ME (Gibco), 0.1% BSA (Sigma) in a density of 1×10^6 cells/ml and disseminated on 24-well culture plate with a dose of 0.1 mL/well and 0.9 ml of IMDM (Methocult SF^BIT StemCell technology) containing 0.9% methyl cellulose was added and culturing was started. The above culture medium (excluding methyl cellulose) was added in a week and after that 100 μL/well of the above culture medium (further excluding IL-3) was added at an interval of every once a week so that cells were diluted to maintain 10^5 cells/mL/well order and cultured more than about 8 weeks and thereby human culture mast cells were obtained.
(3) Expression Enhancement of FcεRI and Inhibition Test IgE Cross-Linking Stimulating Degranulation;
rhIL-4 (final concentration 1 ng/mL, R & D) and Homo sapiens(h) IgE (final concentration 0.5 μg/mL, CHEMICON) were added to the obtained human culture mast cells, and they were incubated for 5 days to enhance the expression of FcεRI. After incubation, cells were collected and, after centrifugal washing (IMDM), they were disseminated on 96-well culture plate in 5×10^4 cells/80 μL/well.
10 μL of a compound 10-fold diluted with IMDM after dissolved in DMSO (DMSO final concentration 0.1%) was added and reacted at 37° C. for 10 minutes. Further, 10 μL of anti-hIgE Ab (CHEMICON) adjusted to 100 μg/mL (final concentration 10 μg/mL) was added and degranulation was caused by being stimulated at 37° C. for 30 minutes. After centrifugation, 50 μL/well of the supernatant was collected and stored at −40° C. untill the quantity of degranulation was measured. The measurement of quantity of degranulation was performed using enzymatic activity of β-Hexosaminidase contained in the granulates as an index. That is, an equivalent amount of p-nitrophenyl-N-acetyl-β-D-glucosaminide (1 mM) (containing 0.1% Triton X-100) which is a substrate of β-Hexosaminidase was added to 50 μL of the culture filtrate, and after reacted at 37° C. for 2 hours, the reaction was terminated by using 100 μL of Carbonate buffer (0.1M, pH 10). […]

[3] = HTRF, 100 μM ATP, 30 min room temperature, average, read-out: sykHTRF ave IC50
[4] = anti-hIgE stimulation, β-Hexosaminidase index, average
[5] = Tables 1-x, compounds A, read-out: sykHTRF ave IC50
[6] = Tables 2-x, thiophene compounds B, read-out: sykHTRK ave IC50
[7] = Tables 2-x, thiophene compounds B

Compound	pIC50 [1, 3]	pIC50 [2, 4]	further results
Cc1ccnc(Nc2cccc(-c3cnc(CNCc4ccc(C(=O)O)cc4)s3)n2)c1 [Compound A-288]	6.00 to 7.00	< 6.00	
Cc1ccnc(Nc2cccc(-c3cnc(C4CCN(C(=O)CS(C)(=O)=O)CC4)s3)n2)c1 [Compound A-397]			pIC50 [1, 5]: 6.00 to 7.00; pIC50 ([2]; Tables 1-x, compounds A): 6.00 to 7.00
CC(=O)N[C@@H](C)c1nc(C(N)=O)c(-c2cccc(Nc3cc(C)ccn3)n2)s1 [Compound A-117]	< 6.00	< 6.00	
Cc1ccnc(Nc2cccc(-c3cnc(N4CCN(C)CC4)s3)n2)c1 [Compound A-432, N-{6-[2-(4-methylpiperazin-1-yl)thiazol-5-yl]pyridin-2-yl}-N-(4-methylpyridin-2-yl)amine]			pIC50 [1, 5]: > 7.00; pIC50 ([2]; Tables 1-x, compounds A): 6.00 to 7.00
Cc1ccnc(Nc2cccc(-c3cnc(C4CCN(S(C)(=O)=O)CC4)s3)n2)c1 [Compound A-353]	6.00 to 7.00	6.00 to 7.00	
Cc1ccnc(Nc2cccc(-c3cnc(N4CCC(C(=O)O)CC4)s3)n2)c1 [Compound A-2, 1-{5-[6-(4-methylpyridin-2-ylamino)pyridin-2-yl]thiazol-2-yl}piperidine-4-carboxylic acid]	> 7.00	< 6.00	
Cc1ccnc(Nc2cccc(-c3cnc(CCc4ccc(NS(C)(=O)=O)cc4)s3)n2)c1 [Compound A-221]	6.00 to 7.00	< 6.00	
Cc1ccnc(Nc2cccc(-c3cnc(CN4C(=O)CC(C)(C)CC4=O)s3)n2)c1 [Compound A-385]			pIC50 [1, 5]: 6.00 to 7.00; pIC50 ([2]; Tables 1-x, compounds A): 6.00 to 7.00
Cc1ccnc(Nc2cccc(-c3cnc(CCC4CCN(C(=O)c5ccncc5)CC4)s3)n2)c1 [Compound A-301]	6.00 to 7.00	6.00 to 7.00	
Cc1ccnc(Nc2cccc(-c3cnc(N(CC(N)=O)[C@H]4CC[C@@H](C(=O)O)CC4)s3)n2)c1 [Compound A-598, cis-4-(N-carbamoylmethyl-N-{5-[6-(4-methylpyridin-2-ylamino)pyridin-2-yl]thiazol-2-yl}amino)cyclohexanecarboxylic acid]			pIC50 [1, 5]: > 7.00; pIC50 ([2]; Tables 1-x, compounds A): < 6.00
CCC(=NO)c1ccc(-c2cccc(Nc3cc(C)ccn3)n2)s1 [Compound B-51, 1-{5-[6-(4-methylpyridin-2-ylamino)pyridin-2-yl]thiophen-2-yl}propan-1-one oxime]			pIC50 [1, 6]: > 7.00; pIC50 [2, 7]: < 6.00
Cc1ccnc(Nc2cccc(-c3cc(C)c(C(=O)O)s3)n2)c1 [Compound B-37]			pIC50 [1, 6]: 6.00 to 7.00; pIC50 [2, 7]: < 6.00
Cc1ccnc(Nc2cccc(-c3cnc(CCCC(=O)O)s3)n2)c1 [Compound A-131]	6.00 to 7.00	< 6.00	
Cc1ccnc(Nc2cccc(-c3cnc([C@H]4CC[C@H](C(=O)NC(C)(C)CO)CC4)s3)n2)c1 [Compound A-175]	6.00 to 7.00	6.00 to 7.00	
Cc1ccnc(Nc2cccc(-c3cncs3)n2)c1 [Compound A-24]	6.00 to 7.00	< 6.00	
O=C(NO)[C@@H]1CCCN(c2ncc(-c3cccc(Nc4cc(Cl)ccn4)n3)s2)C1 [Compound A-552, N-hydroxy-(R)-1-{5-[6-(4-chloropyridin-2-ylamino)pyridin-2-yl]thiazol-2-yl}piperidine-3-carboxamide]			pIC50 [1, 5]: > 7.00; pIC50 ([2]; Tables 1-x, compounds A): 6.00 to 7.00

Compound	pIC50 [1, 3]	pIC50 [2, 4]	further results
Cc1ccnc(Nc2cccc(-c3cnc(CNC[C@H]4CC[C@H](CO)CC4)s3)n2)c1 [Compound A-208]	6.00 to 7.00	< 6.00	
Cc1ccnc(Nc2cccc(-c3cnc([C@@H]4COC(=O)N4CC(=O)O)s3)n2)c1 [Compound A-407]			pIC50 [1, 5]: < 6.00; pIC50 ([2]; Tables 1-x, compounds A): < 6.00
Cc1ccnc(Nc2cccc(-c3cnc([C@H]4CC[C@H](C#N)CC4)s3)n2)c1 [Compound A-316, trans-4-{5-[6-(4-methylpyridin-2-ylamino)pyridin-2-yl]thiazol-2-yl}cyclohexanecarbonitrile]	> 7.00	6.00 to 7.00	
OCC1CCN(c2ncc(-c3cccc(Nc4cc(Cl)ccn4)n3)s2)C1 (centres unmarked) [Compound A-562, (1-{5-[6-(4-chloropyridin-2-ylamino)pyridin-2-yl]thiazol-2-yl}pyrrolidin-3-yl)methanol]			pIC50 [1, 5]: > 7.00; pIC50 ([2]; Tables 1-x, compounds A): > 7.00
COC(=O)CCNCc1ncc(-c2cccc(Nc3cc(C)ccn3)n2)s1 [Compound A-163]	6.00 to 7.00	< 6.00	
Cc1ccnc(Nc2cccc(-c3cnc([C@H]4CC[C@H](CNS(C)(=O)=O)CC4)s3)n2)c1 [Compound A-229, N-(trans-4-{5-[6-(4-methylpyridin-2-ylamino)pyridin-2-yl]thiazol-2-yl}cyclohexylmethyl)methanesulfonamide]	> 7.00	6.00 to 7.00	
CC(=O)N[C@@H](C)c1ncc(-c2cccc(Nc3cc4ccccc4cn3)n2)s1 [Compound A-91, N—((S)-1-{5-[6-(isoquinolin-3-ylamino)pyridin-2-yl]thiazol-2-yl}ethyl)acetamide]	> 7.00	6.00 to 7.00	
CC(=O)N(C)[C@@H](C)c1ncc(-c2cccc(Nc3cc(C)ccn3)n2)s1 [Compound A-52, N-methyl-((S)-1-{5-[6-(4-methylpyridin-2-ylamino)pyridin-2-yl]thiazol-2-yl}ethyl)acetamide]	> 7.00	6.00 to 7.00	
Cc1ccnc(Nc2cccc(-c3cnc(C4=NCCC4)s3)n2)c1 [Compound A-110]	6.00 to 7.00	6.00 to 7.00	
Cc1ccnc(Nc2cccc(-c3cnc([C@H]4CC[C@H](C(=O)N5CCC(O)C5)CC4)s3)n2)c1 (stereo partly drawn) [Compound A-282, (3-hydroxypyrrolidin-1-yl)-(trans-4-{5-[6-(4-methylpyridin-2-ylamino)pyridin-2-yl]thiazol-2-yl}cyclohexyl)methanone]	> 7.00	6.00 to 7.00	
Cc1ccnc(Nc2cccc(-c3cnc(C(=O)C(C)C)s3)n2)c1 [Compound A-83]	6.00 to 7.00	< 6.00	
Cc1ccnc(Nc2cccc(-c3cnc([C@H]4CC[C@H](C(=O)N5CC[C@H](O)[C@H](O)C5)CC4)s3)n2)c1 [Compound A-239, ((3R,4S)-3,4-dihydroxypiperidin-1-yl)-(trans-4-{5-[6-(4-methylpyridin-2-ylamino)pyridin-2-yl]thiazol-2-yl}cyclohexyl)methanone]	> 7.00	6.00 to 7.00	
Cc1ccnc(Nc2cccc(-c3cnc([C@H](C)N)s3)n2)c1 [Compound A-9, N—((S)-1-{5-[6-(4-methylpyridin-2-ylamino)pyridin-2-yl]thiazol-2-yl}ethyl)amine]	6.00 to 7.00	6.00 to 7.00	
Cc1ccnc(Nc2cccc(-c3cnc(CCN)s3)n2)c1 [Compound A-245]	6.00 to 7.00	6.00 to 7.00	
COCCN(c1ncc(-c2cccc(Nc3cc(C)ccn3)n2)s1)C1CCN(C(C)=O)CC1 [Compound A-526, 1-[4-(N-(2-methoxyethyl)-N-{5-[6-(4-methylpyridin-2-ylamino)pyridin-2-yl]thiazol-2-yl}amino)piperidin-1-yl]ethanone]			pIC50 [1, 5]: > 7.00; pIC50 ([2]; Tables 1-x, compounds A): 6.00 to 7.00

From patent publication US7803801B2, “Aminopyridine compounds having Syk inhibitory activity” (Japan Tobacco, Inc., priority 2005, dated 2010)
